From patent US9856259B2, “Heterocyclic compounds and uses thereof” (Plexxikon Inc., priority 2014, dated 2018)

Assays:
MV-4-11 = assay: Oncology cell growth assay, MV-4-11 3 d growth; assay type: cell-based; settings: Homo sapiens, MV4-11; MV-4-11 cells, 72 hours, CellTiter Glo; read-out: Cell activity (IC50 μM) MV-4-11 3 d-Growtb
Description: (§1) In this study, we test compounds in different cancer cell lines. MV-4-11 and MOLM-13 are AML cell lines harboring a MLL-AF4 and MLL-AF9 translocation, respectively. MM.1S is a multiple myeloma cell line. SK—N-AS, IMR-32 and SK-N-BE(2) are neuroblastoma cell lines. IMR-32 and SK-N-BE(2) cell lines harbor MYCN amplifications.
(§2) MV-4-11, MM.1S, IMR-32, SK-N-AS and SK-N-BE(2) were obtained from ATCC (IL, USA) and MOLM-13 were purchased from DSMZ (Braunschweig, German). Cells are cultured as recommended by their sources. For growth inhibition studies 3000 cells are seeded in wells of a 96-well plate in 75 μL of culture media. After several hours, growth media containing compounds of formula (I) are added to the wells. Compound at a maximal concentration of 5 mM was serially diluted 1:3 for a total of 8 point titration with DMSO as a control. A 1 μL aliquot of each dilution point is added to 249 μL growth media and 75 μL is added to each well containing cells, providing 10 μM compound at the maximum concentration point. The final concentration of DMSO in all wells is 0.2%. Cells are incubated for 72 hours, and 25 μL of CellTiter Glo Reagent (Promega Ga., USA) is added to each well. Plates are shaken for approximately 10 minutes and chemiluminescent signal is read on Tecan microplate reader. The measured luminescence correlates directly with cell number.
(§3) All data is normalized to the mean of eight DMSO high control wells on each plate. A four parameter curve fit of the following formula was then applied: Y=a+(b−a)/(1+(x/c)^d) Where ‘a’ is the minimum, ‘b’ is the maximum, ‘c’ is the pIC50 and ‘d’ is the Hill slope. […] Myc Reporter Assay

BRD4-BD12 = target: T1, BRD4-BD12 (Homo sapiens, UniProt O60885); assay: Alphascreen binding assay, BRD4(1 2) H4; settings: BRD4 dual bromodomains with acetylated Histone 4 peptide, read-out: Biochemical activity (IC50 μM) BRD4(1 2) H4
T1 construct: dual bromodomains (BRD4-BD12 (1-477), BRD4-BD12 (1-472)); six-His tag (N); made in house; host or cells: E. coli BL21-CodonPlus (DE3)
Description: Binding of compounds of formula (I) with bromodomain 2, 3 4 was assessed using Alphascreen binding assay. The inhibition of the interaction between bromodomain and its acetylated target protein (Filippakopoulos P et al. 2012) was measured quantitatively using recombinant BRD proteins, an acetylated Histone 4 peptide and AlphaScreen™ technology. In absence of inhibition the BRD protein bound to AlphaScreen™ nickel chelate acceptor beads can interact with the acetylated Histone 4 peptide which is immobilized by the AlphaScreen™ Streptavidin coated beads. This interaction brings donor and acceptor beads in proximity. The close proximity allows the singlet oxygen produced by laser excitation of the donor beads to reach the acceptor beads and generate a luminescence signal. BRD inhibitors result in a decrease in the proximity signal through an inhibition of the BRD acetylated peptide interaction.
Recombinant human bromodomains containing the N-terminal bromodomain (BRD2-BD1 (71-194), BRD3-BD1 (24-144) and BRD4-BD1 (44-164)) or dual bromodomains (BRD4-BD12 (1-477), BRD4-BD12 (1-472)) were prepared and purified as described in protein expression and purification session. The peptide is human Histone H41-21K5AcK8AcK12AcK16Ac-Biotin (Anaspec Calif., USA).
Protocol for BRD2, BRD3 and BRD4 assay: All components are prepared in buffer composed of 50 mM HEPES pH 7.5, 100 mM NaCl, 0.01% BSA, 0.01% Triton X-100, 2 mM DTT. 7 μL of Bromodomain protein and 7 μL of peptide are added to wells containing 1 μL of various concentrations of test compounds of formula (I) or DMSO vehicle in an Alphaplate (PerkinElmer Ga., USA) and incubated for 1 hour at room temperature. 4 μL donor and acceptor bead mixture is then added with final concentrations of 7.5 μg/ml. 30 minutes after bead addition, Alpha signal is read on the Envision spectrometer (λEx 680 nm, λEm 520-620 nm). Final concentrations of bromodomain proteins and peptide are as shown below.
All data was normalized to the mean of 16 high and 16 low control wells on each plate. A four parameter curve fit of the following formula was then applied: Y=a+(b−a)/(1+(x/c)^d) Where ‘a’ is the minimum, ‘b’ is the maximum, ‘c’ is the pIC50 and ‘d’ is the Hill slope. Protein Expression and Purification
Recombinant human bromodomains containing the N-terminal bromodomain (BRD2-BD1 (71-194), BRD3-BD1 (24-144) and BRD4-BD1 (44-164)) or dual bromodomains (BRD4-BD12 (1-477), BRD4-BD12 (1-472)) were expressed in E. coli cells (in a modified pET vector) with an N-terminal six-His tag and purified using a combination of both IMAC (Ni-affinity) and size exclusion chromatography steps.
Recombinant BRD proteins were expressed using the E. coli strain BL21-CodonPlus (DE3) (Agilent Technologies CA, USA). Cells were grown in Terrific Broth (TB) media to an OD600 of 1.2 at 37° C. at which temperature was reduced to 25° C., protein was induced with 1.0 mM IPTG for 12-18 hours and harvested by centrifugation at 8000×g for 20 minutes. Cells were re-suspended in 0.1M KPO4 pH 8.0, 250 mM NaCl, 10% Glycerol, 0.75% NP-40, 25 mM Imidazole, 5 mM BME with 0.2 mg/ml Lysosyme, 2.0 mM PMSF, 25 μg/ml DNAse I, incubated on ice for 30 minutes and lyzed with a cell disruptor (MicroFluidics MA, USA). The lysate was clarified by centrifugation at 20,000×g for 2 hours. The protein was captured with Ni-NTA resin (Life Technologies, USA). Contaminating proteins were washed off with 25 mM Tris-HCl pH 8.3, 250 mM NaCl, 12% Glycerol and 50 mM Imidazole. Following 3× wash steps, protein was eluted step wise using a 50 mM HEPES pH 7.5, 500 mM NaCl and 400 mM Imidazole. The protein was further purified using Gel Filtration column 26/600 Superdex 200 (GE Biosciences N.J., USA) in 50 mM HEPES pH 7.5, 250 mM NaCl. The protein was aliquoted and flash-frozen in liquid Nitrogen.

[1] = tested on: cancer cell lines / MV-4-11 Myc reporter cell line; assay: Bromodomain cell assays of Example 8 (at least one of them); assay type: cell-based; settings: Homo sapiens, MV4-11; at least one of the bromodomain cell assays described in Example 8
Description: as §1, §2, §3
In MV-4-11 cells, BRD2, BRD3 and BRD4 bind to the promoter region of MYC and regulate its transcription (Dawson M A et al. 2011). The literature bromodomain inhibitor iBET 151 could disrupt BRD4 recruitment to the MYC promoter and subsequently downregulate c-myc transcription (Dawson M A et al. 2011). Myc protein is a transcription factor that heterodimerizes with an obligatory partner Max and regulates the transcription of genes important for cell proliferation, differentiation, and apoptosis. This Myc reporter assay is used to monitor the inhibitory effect of compound of formula (I) on Myc dependent gene expression. Effective compounds could have potential therapeutic effects in Myc-driven tumors.
The MV-4-11 Myc reporter cell line is established by infecting MV-4-11 with VSV-g pseudotyped lentivirus expressing the firefly luciferase gene under the control of a minimal (m) CMV promoter and tandem repeats of the E-box transcriptional response element (TRE) (Qiagen IL, USA) and selecting cells in 2.5 μg/ml Puromycin.
The MV-4-11 Myc reporter cell line is maintained in Iscove's Modified Dulbecco's Medium containing 10% FBS, 1% PenStep and 2.5 μg/ml Puromycin. Cells are incubated at 37° C. in a humidified atmosphere with 5% CO2. 25,000 cells are seeded in 96-well plate in 50 μL of culture media. After several hours, growth media containing 2× compounds are added to the wells. Compound at a maximal concentration of 5 mM is serially diluted 1:3 for a total of 8 point titration. A 1 μl aliquot of each dilution point is added to 249 μl growth media and 50 μl is added to each well containing cells, providing 10 μM compound at the maximum concentration point. DMSO treated cells serve as a high control and 10 μM JQ1 treated cells serve as a low control. Cells are incubated for a further 24 hours and 25 μL of CellTiter-Fluo Reagent (Promega Ga., USA) is added to each well. Plates are shaken for approximately 2 minutes and incubated at 37° C. for 0.5 hour. Fluorescence signal is read in a Tecan Plate reader (λex=400 nm, λcm=505 nm). 25 μL of One-Glo Reagent (Promega Ga., USA) is then added to the plates. Chemiluminescent signal is read on Tecan plate reader. Values from the wells with no cells are subtracted from all samples for background correction. […]

SMILES | IC50 (MV-4-11) [µM] | IC50 (BRD4-BD12) [µM] | IC50 [1] [µM]
[2H]C([2H])(C1CCC(F)(F)CC1)n1nc(-c2cnn(CC(F)(F)F)c2)c2ncc(-c3c(C)noc3C)cc21 [Compound P-2085, 4-[1-[dideuterio-(4,4-difluorocyclohexyl)methyl]-3-[1-(2,2,2-trifluoroethyl)pyrazol-4-yl]pyrazolo[4,3-b]pyridin-6-yl]-3,5-dimethyl-isoxazole] | ≤ 1 | ≤ 1 | < 10
[2H]C([2H])(C1CCC(F)(F)CC1)n1cc(I)c2ncc(-c3c(C)noc3C)nc21 [Compound P-2039, 4-[5-[dideuterio-(4,4-difluorocyclohexyl)methyl]-7-iodo-pyrrolo[2,3-b]pyrazin-3-yl]-3,5-dimethyl-isoxazole] | ≤ 1 | ≤ 1 | < 10
Cc1noc(C)c1-c1cnc2c(-c3ccc(C(=O)O)cc3)cn(C(c3ccccc3)c3ccccn3)c2n1 (stereo not drawn) [Compound P-2046, 4-[3-(3,5-dimethylisoxazol-4-yl)-5-[phenyl(2-pyridyl)methyl]pyrrolo[2,3-b]pyrazin-7-yl]benzoic acid] | ≤ 1 | ≤ 1 | < 10
[2H]C([2H])(C1CCC(F)(F)CC1)n1nc(-c2cnn(C(F)F)c2)c2ncc(-c3c(C)noc3C)cc21 [Compound P-2084, 4-[1-[dideuterio-(4,4-difluorocyclohexyl)methyl]-3-[1-(difluoromethyl)pyrazol-4-yl]pyrazolo[4,3-b]pyridin-6-yl]-3,5-dimethyl-isoxazole] | ≤ 1 | ≤ 1 | < 10
Cc1noc(C)c1-c1cnc2cnn(CC3CCC(F)(F)CC3)c2c1 [Compound P-2079, 4-[1-[(4,4-difluorocyclohexyl)methyl]pyrazolo[4,3-b]pyridin-6-yl]-3,5-dimethyl-isoxazole] | ≤ 1 | ≤ 1 | < 10
Cc1noc(C)c1-c1cnc2c(I)cn([C@@H](C)c3ccccn3)c2n1 [Compound P-2056, 4-[7-iodo-5-[(1S)-1-(2-pyridyl)ethyl]pyrrolo[2,3-b]pyrazin-3-yl]-3,5-dimethyl-isoxazole] | ≤ 1 | ≤ 1 | < 10
COC(=O)C1(c2ccc(-c3cn([C@@H](C)c4ccccn4)c4nc(-c5c(C)noc5C)cnc34)cc2)CC1 [Compound P-2053, methyl 1-[4-[3-(3,5-dimethylisoxazol-4-yl)-5-[(1S)-1-(2-pyridyl)ethyl]pyrrolo[2,3-b]pyrazin-7-yl]phenyl]cyclopropanecarboxylate] | ≤ 1 | ≤ 1 | < 10
COC(=O)c1ccc(-c2nn([C@@H](C)c3ccccn3)c3cc(-c4c(C)noc4C)ccc23)cc1 [Compound P-2011, methyl 4-[6-(3,5-dimethylisoxazol-4-yl)-1-[(1S)-1-(2-pyridyl)ethyl]indazol-3-yl]benzoate] | ≤ 1 | ≤ 1 | < 10
Cc1noc(C)c1-c1cnc2c(n1)c(CC1CCC(F)(F)CC1)cn2-c1ccc(C(=O)O)cn1 [Compound P-2078, 6-[7-[(4,4-difluorocyclohexyl)methyl]-2-(3,5-dimethylisoxazol-4-yl)pyrrolo[2,3-b]pyrazin-5-yl]pyridine-3-carboxylic acid] | 1 to 10 | ≤ 1 | < 10
Cc1noc(C)c1-c1cnc2c(-c3ccc(CC(=O)O)cc3)cn([C@@H](C)c3ccccn3)c2n1 [Compound P-2052, 2-[4-[3-(3,5-dimethylisoxazol-4-yl)-5-[(1S)-1-(2-pyridyl)ethyl]pyrrolo[2,3-b]pyrazin-7-yl]phenyl]acetic acid] | ≤ 1 | ≤ 1 | < 10
Cc1noc(C)c1-c1cnc2c(-c3cnn(CC(F)(F)F)c3)nn(CC3CCC(F)(F)CC3)c2c1 [Compound P-2083, 4-[1-[(4,4-difluorocyclohexyl)methyl]-3-[1-(2,2,2-trifluoroethyl)pyrazol-4-yl]pyrazolo[4,3-b]pyridin-6-yl]-3,5-dimethyl-isoxazole] | ≤ 1 | ≤ 1 | < 10
